Consider 7 compounds from patent US20090062388A1, “Use of acetyl L-carnitine for the preparation of a medication for the preventive therapy for pain” (Sigma-Tau Industrie Farmaceutiche Riunite S.p.A., priority 2001, published 2009).

Like-named read-outs stand apart in the source and are kept apart here.

This assay concerns mice. The assay is classed as in vivo. Particulars: for antagonism of the analgesia induced by acetyl L-carnitine: acetyl L-carnitine 100 mg/kg BID SC for 7 days, hot plate; for Hot plate Licking latency: antagonist pre-treatment + PS (no acetyl L-carnitine). The method, then:
The analgesia induced by the acetyl L-carnitine (100 mg/kg BID, SC for 7 days) was determined in presence of some antagonists of some neurotransmission systems deeply involved in the regulation of pain threshold, and in particular the naloxone (opioid antagonist), the CGP-35348 (GABAB antagonist) and the alpha-methyl-p-tyrosine (inhibitor of the synthesis of cathecolamines).
In agreement with the standard procedures known by the person skilled in the art, the doses used for any antagonist were the minimum required to prevent the analgesia induced by morphine (7 mg/kg SC) (1, 100 e 200 mg/kg IP), baclofen (4 mg/kg SC) and amphetamine (1 mg/kg SC) (non-reported data) respectively.

The mark [1] stands for this setting: dose (naloxone 1, CGP 35348 100, alpha-M-p-T 200, atropine 5 mg/kg, HC-3 1 μg, pirenzepine 0.1 μg, S-(−)-ET-126 0.1 μg ICV), before treatment.

As to `C[N+]1(C)CCOC(O)(c2ccc(-c3ccc(C4(O)C[N+](C)(C)CCO4)cc3)cc2)C1.[Br-].[Br-]` (centres unmarked) [HC-3, hemicholinium-3, reference compound], the “antagonism of the analgesia induced by acetyl L-carnitine” value (from here on “antagonism of the analgesia induced”) was “capable to antagonize the increase of the pain threshold”. Also, the “Hot plate Licking latency” value (after treatment 15 min) was determined as 13.7 ± 1.1 s. Under “after treatment 30 min”, the “Hot plate Licking latency” value stood at 15.4 ± 1.2 s. In addition, where the note is “after treatment 45 min”, the “Hot plate Licking latency” value was found to be 13.1 ± 1.9 s. In addition, the “Hot plate Licking latency” value under setting [1] amounted to 14.1 ± 0.9 s.

For `CN1CCC(OC(=O)[C@H](CO)c2ccccc2)CC1` [S-(−)-ET-126, reference compound], the “antagonism of the analgesia induced” value is “capable to antagonize the increase of the pain threshold”. In addition, under “after treatment 15 min”, the “Hot plate Licking latency” value is 15.3 ± 1.8 s. Moreover, the “Hot plate Licking latency” value (after treatment 30 min) is 16.2 ± 1.9 s. Moreover, under “after treatment 45 min”, the “Hot plate Licking latency” value is 16.1 ± 2.0 s. Besides, the “Hot plate Licking latency” value under setting [1] came to 15.0 ± 1.0 s.

Consider `CN1CCN(CC(=O)N2c3ccccc3C(=O)Nc3cccnc32)CC1` [Pirenzepine, pirenzepine, reference compound], for which the “antagonism of the analgesia induced” value was “capable to antagonize the increase of the pain threshold”. The “Hot plate Licking latency” value (after treatment 15 min) is 13.9 ± 1.5 s. Besides, the “Hot plate Licking latency” value (after treatment 30 min) is 14.5 ± 1.8 s. Also, the “Hot plate Licking latency” value (after treatment 45 min) worked out at 15.5 ± 1.5 s. Further, the “Hot plate Licking latency” value under setting [1] is 13.6 ± 0.8 s.

Turning to `CCOC(OCC)P(=O)(O)CCCN` [CGP 35348, reference compound], the “Hot plate Licking latency” value turned out to be 12.4 ± 1.0 s (after treatment 15 min), 12.6 ± 1.3 s (after treatment 30 min), 12.2 ± 1.6 s (after treatment 45 min) and 14.4 ± 0.8 s under setting [1].

In the case of `CC(N)(Cc1ccc(O)cc1)C(=O)O` (stereo not drawn) [Alpha-M-p-T, alpha-methyl-p-tyrosine, reference compound], the “Hot plate Licking latency” value (after treatment 15 min) was found to be 15.4 ± 1.6 s, the “Hot plate Licking latency” value (after treatment 30 min) stood at 16.1 ± 1.8 s, the “Hot plate Licking latency” value (after treatment 45 min) turned out to be 13.6 ± 1.5 s and the “Hot plate Licking latency” value under setting [1] was found to be 14.6 ± 0.9 s.

`C=CCN1CC[C@]23c4c5ccc(O)c4O[C@H]2C(=O)CC[C@@]3(O)[C@H]1C5` [Naloxone, naloxone, reference compound]: the “Hot plate Licking latency” value by setting is: (after treatment 15 min) 13.3 ± 1.3 s; (after treatment 30 min) 13.1 ± 1.1 s; (after treatment 45 min) 14.2 ± 1.3 s; under setting [1], 14.0 ± 0.7 s.

`CN1[C@@H]2CC[C@H]1C[C@@H](OC(=O)C(CO)c1ccccc1)C2` (some centres unmarked) [Atropine, atropine, reference compound]: the “antagonism of the analgesia induced” value is given as “capable to antagonize the increase of the pain threshold”. For the same compound, the “Hot plate Licking latency” value (after treatment 15 min) came out at 13.7 ± 1.1 s. For the same compound, the “Hot plate Licking latency” value (after treatment 30 min) was 15.4 ± 1.2 s. The “Hot plate Licking latency” value (after treatment 45 min) turned out to be 13.1 ± 1.9 s. Moreover, under setting [1], the “Hot plate Licking latency” value was found to be 14.1 ± 0.9 s.
